Tested on: MEK
Assay: Cellular Assay for Measuring MEK Inhibition (inhibition of ERK phosphorylation in C26 cells, Western blot)
Type: cell-based, murine
Conditions: for % Inhibition @ 0.1 μM / % Inhibition @ 1 μM / % Inhibition @ 10 μM: ERK phosphorylation in C26 cells; for IC50: inhibition of ERK phosphorylation in murine colon 26 (C26) carcinoma cells, determined graphically from dose response curve
Summary of the method: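 Read-out is phospho-ERK1/2 by Western blot, normalized against total ERK1/2 after stripping and re-probing. Murine C26 colon carcinoma cells in exponential growth were exposed to a range of compound concentrations at 37° C before lysis.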

| IC50 [µM] | SMILES | % Inhibition @ 0.1 μM [%] | % Inhibition @ 1 μM [%] | % Inhibition @ 10 μM [%] |
| --- | --- | --- | --- | --- |
| – | CC(O)CONC(=O)c1cc(Cl)c(F)c(F)c1Nc1ccc(F)cc1F (centres unmarked) [Example 166, 5-Chloro-2-(2,4-difluoro-phenylamino)-3,4-difluoro-N-(2-hydroxy-propoxy)-benzamide] | 0 | 31.9 | 88.7 |
| – | CC(O)CONC(=O)c1ccc(F)c(F)c1Nc1ccc(F)cc1F (centres unmarked) [Example 167, 2-(2,4-Difluoro-phenylamino)-3,4-difluoro-N-(2-hydroxy-propoxy)-benzamide] | – | 80.5 | 89.2 |
| – | CC(O)CONC(=O)c1ccc(F)c(F)c1Nc1ccc(Cl)cc1F (centres unmarked) [Example 168, 2-(4-Chloro-2-fluoro-phenylamino)-3,4-difluoro-N-(2-hydroxy-propoxy)-benzamide] | 48.8 | 89.5 | – |
| 0.014 | CC(O)CONC(=O)c1cc(F)c(F)cc1Nc1ccc(I)cc1F (centres unmarked) [Example 169, 4,5-Difluoro-2-(2-fluoro-4-iodo-phenylamino)-N-(2-hydroxy-propoxy)-benzamide] | – | – | – |
| – | CC(C)(O)CONC(=O)c1cc(F)c(F)c(F)c1Nc1ccc(I)cc1Cl [Example 170, 2-(2-Chloro-4-iodo-phenylamino)-3,4,5-trifluoro-N-(2-hydroxy-2-methyl-propoxy)-benzamide] | 19 | 85.7 | – |
| – | Cc1cc(I)ccc1Nc1c(C(=O)NOCC(C)(C)O)cc(F)c(F)c1F [Example 171, 3,4,5-Trifluoro-N-(2-hydroxy-2-methyl-propoxy)-2-(4-iodo-2-methyl-phenylamino)-benzamide] | 35.6 | 94.6 | – |
| – | Cc1cc(I)ccc1Nc1c(C(=O)NOCC(C)(C)O)cc(Br)c(F)c1F [Example 172, 5-Bromo-3,4-difluoro-N-(2-hydroxy-2-methyl-propoxy)-2-(4-iodo-2-methyl-phenylamino)-benzamide] | 41.9 | 92.9 | – |
| 0.3 | CC(C)(O)CONC(=O)c1cc(Br)c(F)c(F)c1Nc1ccc(I)cc1Cl [Example 173, 5-Bromo-2-(2-chloro-4-iodo-phenylamino)-3,4-difluoro-N-(2-hydroxy-2-methyl-propoxy)-benzamide] | – | – | – |
| 0.1 | Cc1cc(I)ccc1Nc1c(C(=O)NOCC(C)(C)O)ccc(F)c1F [Example 174, 3,4-Difluoro-N-(2-hydroxy-2-methyl-propoxy)-2-(4-iodo-2-methyl-phenylamino)-benzamide] | – | – | – |
| 0.18 | CC(C)(O)CONC(=O)c1cc(Cl)c(F)c(F)c1Nc1ccc(I)cc1Cl [Example 175, 5-Chloro-2-(2-chloro-4-iodo-phenylamino)-3,4-difluoro-N-(2-hydroxy-2-methyl-propoxy)-benzamide] | – | – | – |
| – | Cc1cc(I)ccc1Nc1c(C(=O)NOCC(C)(C)O)cc(Cl)c(F)c1F [Example 176, 5-Chloro-3,4-difluoro-N-(2-hydroxy-2-methyl-propoxy)-2-(4-iodo-2-methyl-phenylamino)-benzamide] | 14.1 | 87.7 | – |
| – | CC(C)(O)CONC(=O)c1ccc(F)c(F)c1Nc1ccc(I)cc1F [Example 177, 3,4-Difluoro-2-(2-fluoro-4-iodo-phenylamino)-N-(2-hydroxy-2-methyl-propoxy)-benzamide] | 91.6 | 95.7 | – |
| – | CC(C)(O)CONC(=O)c1cc(Br)c(F)c(F)c1Nc1ccc(I)cc1F [Example 178, 5-Bromo-3,4-difluoro-2-(2-fluoro-4-iodo-phenylamino)-N-(2-hydroxy-2-methyl-propoxy)-benzamide] | 61.8 | 94.9 | – |
| – | CC(C)(O)CONC(=O)c1cc(Cl)c(F)c(F)c1Nc1ccc(I)cc1F [Example 179, 5-Chloro-3,4-difluoro-2-(2-fluoro-4-iodo-phenylamino)-N-(2-hydroxy-2-methyl-propoxy)-benzamide] | 90.4 | 99.3 | – |
| – | CC(C)(O)CONC(=O)c1cc(Cl)c(F)c(F)c1Nc1ccc(F)cc1F [Example 180, 5-Chloro-2-(2,4-difluoro-phenylamino)-3,4-difluoro-N-(2-hydroxy-2-methyl-propoxy)-benzamide] | – | 34 | 58.6 |
| – | CC(C)(O)CONC(=O)c1ccc(F)c(F)c1Nc1ccc(F)cc1F [Example 181, 2-(2,4-Difluoro-phenylamino)-3,4-difluoro-N-(2-hydroxy-2-methyl-propoxy)-benzamide] | – | 0 | 65.1 |
| – | CC(C)(O)CONC(=O)c1ccc(F)c(F)c1Nc1ccc(Br)cc1F [Example 182, 2-(4-Bromo-2-fluoro-phenylamino)-3,4-difluoro-N-(2-hydroxy-2-methyl-propoxy)-benzamide] | 13.1 | 81.9 | – |
| 0.053 | O=C(NOCC(O)COc1ccccc1)c1ccc(F)c(F)c1Nc1ccc(I)cc1Cl (centres unmarked) [Example 183] | – | – | – |

| IC50 [µM] | SMILES | % Inhibition @ 0.1 μM [%] | % Inhibition @ 1 μM [%] | % Inhibition @ 10 μM [%] |
| --- | --- | --- | --- | --- |
| – | O=C(NOCC(O)COc1ccccc1)c1cc(F)c(F)c(F)c1Nc1ccc(I)cc1Cl (centres unmarked) [Example 184, 2-(2-Chloro-4-iodo-phenylamino)-3,4,5-trifluoro-N-(2-hydroxy-3-phenoxy-propoxy)-benzamide] | 16.1 | 82.5 | – |
| – | Cc1cc(I)ccc1Nc1c(C(=O)NOCC(O)COc2ccccc2)cc(F)c(F)c1F (centres unmarked) [Example 185, 3,4,5-Trifluoro-N-(2-hydroxy-3-phenoxy-propoxy)-2-(4-iodo-2-methyl-phenylamino)-benzamide] | 6.2 | 71.9 | – |
| 0.034 | O=C(NOCC(O)COc1ccccc1)c1cc(Br)c(F)c(F)c1Nc1ccc(I)cc1Cl (centres unmarked) [Example 186, 5-Bromo-2-(2-chloro-4-iodo-phenylamino)-3,4-difluoro-N-(2-hydroxy-3-phenoxy-propoxy)-benzamide] | – | – | – |
| – | Cc1cc(I)ccc1Nc1c(C(=O)NOCC(O)COc2ccccc2)cc(Br)c(F)c1F (centres unmarked) [Example 187, 5-Bromo-3,4-difluoro-N-(2-hydroxy-3-phenoxy-propoxy)-2-(4-iodo-2-methyl-phenylamino)-benzamide] | 13.8 | 83.3 | – |
| 0.044 | Cc1cc(I)ccc1Nc1c(C(=O)NOCC(O)COc2ccccc2)ccc(F)c1F (centres unmarked) [Example 188, 3,4-Difluoro-N-(2-hydroxy-3-phenoxy-propoxy)-2-(4-iodo-2-methyl-phenylamino)-benzamide] | – | – | – |
| – | Cc1cc(I)ccc1Nc1c(C(=O)NOCC(O)COc2ccccc2)cc(Cl)c(F)c1F (centres unmarked) [Example 190, 5-Chloro-3,4-difluoro-N-(2-hydroxy-3-phenoxy-propoxy)-2-(4-iodo-2-methyl-phenylamino)-benzamide] | 51.5 | 94.6 | – |
| 0.006 | O=C(NOCC(O)COc1ccccc1)c1ccc(F)c(F)c1Nc1ccc(I)cc1F (centres unmarked) [Example 191, 3,4-Difluoro-2-(2-fluoro-4-iodo-phenylamino)-N-(2-hydroxy-3-phenoxy-propoxy)-benzamide] | – | – | – |
| 0.007 | O=C(NOCC(O)COc1ccccc1)c1cc(Cl)c(F)c(F)c1Nc1ccc(I)cc1F (centres unmarked) [Example 192, 5-Chloro-3,4-difluoro-2-(2-fluoro-4-iodo-phenylamino)-N-(2-hydroxy-3-phenoxy-propoxy)-benzamide] | – | – | – |
| 0.01 | O=C(NOCC(O)COc1ccccc1)c1cc(F)c(F)cc1Nc1ccc(I)cc1F (centres unmarked) [Example 193, 4,5-Difluoro-2-(2-fluoro-4-iodo-phenylamino)-N-(2-hydroxy-3-phenoxy-propoxy)-benzamide] | – | – | – |
| – | O=C(NOCC(O)COc1ccccc1)c1cc(Cl)c(F)c(F)c1Nc1ccc(F)cc1F (centres unmarked) [Example 194, 5-Chloro-2-(2,4-difluoro-phenylamino)-3,4-difluoro-N-(2-hydroxy-3-phenoxy-propoxy)-benzamide] | 0 | 0 | – |
| – | O=C(NOCC(O)COc1ccccc1)c1ccc(F)c(F)c1Nc1ccc(F)cc1F (centres unmarked) [Example 195, 2-(2,4-Difluoro-phenylamino)-3,4-difluoro-N-(2-hydroxy-3-phenoxy-propoxy)-benzamide] | – | 26.7 | 82.6 |
| – | O=C(NOCC(O)COc1ccccc1)c1ccc(F)c(F)c1Nc1ccc(Cl)cc1F (centres unmarked) [Example 196, 2-(4-Chloro-2-fluoro-phenylamino)-3,4-difluoro-N-(2-hydroxy-3-phenoxy-propoxy)-benzamide] | 10.2 | 82.8 | – |
| 0.051 | Cc1cc(I)ccc1Nc1c(C(=O)NOCC(C)(C)CO)ccc(F)c1F [Example 197, 3,4-Difluoro-N-(3-hydroxy-2,2-dimethyl-propoxy)-2-(4-iodo-2-methyl-phenylamino)-benzamide] | – | – | – |
| – | CC(C)(CO)CONC(=O)c1cc(F)c(F)c(F)c1Nc1ccc(I)cc1Cl [Example 198, 2-(2-Chloro-4-iodo-phenylamino)-3,4,5-trifluoro-N-(3-hydroxy-2,2-dimethyl-propoxy)-benzamide] | 0 | 43.5 | – |
| 0.1 | Cc1cc(I)ccc1Nc1c(C(=O)NOCC(C)(C)CO)cc(F)c(F)c1F [Example 199, 3,4,5-Trifluoro-N-(3-hydroxy-2,2-dimethyl-propoxy)-2-(4-iodo-2-methyl-phenylamino)-benzamide] | – | – | – |
| 0.3 | CC(C)(CO)CONC(=O)c1cc(Cl)c(F)c(F)c1Nc1ccc(I)cc1Cl [Example 200, 5-Chloro-2-(2-chloro-4-iodo-phenylamino)-3,4-difluoro-N-(3-hydroxy-2,2-dimethyl-propoxy)-benzamide] | – | – | – |
| 0.1 | Cc1cc(I)ccc1Nc1c(C(=O)NOCC(C)(C)CO)cc(Cl)c(F)c1F [Example 201, 5-Chloro-3,4-difluoro-N-(3-hydroxy-2,2-dimethyl-propoxy)-2-(4-iodo-2-methyl-phenylamino)-benzamide] | – | – | – |
| – | CC(C)(CO)CONC(=O)c1ccc(F)c(F)c1Nc1ccc(I)cc1F [Example 202, 3,4-Difluoro-2-(2-fluoro-4-iodo-phenylamino)-N-(3-hydroxy-2,2-dimethyl-propoxy)-benzamide] | 59.7 | 94.6 | – |

Reference: patent publication US6960614B2, “Oxygenated esters of 4-lodo phenylamino benzhydroxamic acids” (Warner-Lambert Company, priority 2000, dated 2005)
